From ChEMBL document CHEMBL1201862, “PubChem BioAssay data set” (2004)
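Following 48 hours of exposure in 96-well plates, responses at five concentrations were used to interpolate endpoints linearly. At the GI50, growth is halved.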 Activity calls are given as the source filed them. Rule as the data show it: active = GI50 up to about 1.1 µM and inactive = higher.

Key:
Test in all cases: growth of human tumour cells (NCI), 48 h
NCI-H522 = test system: NCI-H522
NCI-H23 = test system: NCI-H23
SF-295 = test system: SF-295
MOLT-4 = test system: MOLT-4
MDA-MB-435 = test system: MDA-MB-435
EKVX = test system: EKVX
SW-620 = test system: SW-620
KM12 = test system: KM12
OVCAR-5 = test system: OVCAR-5
SNB-75 = test system: SNB-75
OVCAR-3 = test system: OVCAR-3
TK-10 = test system: TK-10
SK-MEL-5 = test system: SK-MEL-5
NCI-H460 = test system: NCI-H460
RXF 393 = test system: RXF 393
UACC-257 = test system: UACC-257
PC-3 = test system: PC-3
NCI-H226 = test system: NCI-H226
HOP-62 = test system: HOP-62
OVCAR-4 = test system: OVCAR-4

SMILES | GI50 (NCI-H522) | GI50 (NCI-H23) | GI50 (SF-295) | GI50 (MOLT-4) | GI50 (MDA-MB-435) | GI50 (EKVX) | GI50 (SW-620) | GI50 (KM12) | GI50 (OVCAR-5) | GI50 (SNB-75) | GI50 (OVCAR-3) | GI50 (TK-10) | GI50 (SK-MEL-5) | GI50 (NCI-H460) | GI50 (RXF 393) | GI50 (UACC-257) | GI50 (PC-3) | GI50 (NCI-H226) | GI50 (HOP-62) | GI50 (OVCAR-4)
COC(=O)C(Cc1c(-c2[nH]c3ccccc3c2CC(NC(C)=O)C(=O)OC)[nH]c2ccccc12)NC(C)=O (stereo unspecified) | 16.3 µM (inactive) | > 100 µM (inactive) | > 100 µM (inactive) | > 100 µM (inactive) | > 100 µM (inactive) | > 100 µM (inactive) | > 100 µM (inactive) | > 100 µM (inactive) | > 100 µM (inactive) | 92 µM (inactive) | > 100 µM (inactive) | > 100 µM (inactive) | > 100 µM (inactive) | > 100 µM (inactive) | > 100 µM (inactive) | > 100 µM (inactive) | > 100 µM (inactive) | > 100 µM (inactive) | > 100 µM (inactive) | 
COC(=O)CCc1ccc2c(c1)CC1(Cc3ccccc3C1)C2 | 74 µM (inactive) | > 100 µM (inactive) | > 100 µM (inactive) | 77.1 µM (inactive) | > 100 µM (inactive) | > 100 µM (inactive) |  | > 100 µM (inactive) | > 100 µM (inactive) | < 0.01 µM (active) | > 100 µM (inactive) | > 100 µM (inactive) | 33.6 µM (inactive) |  | > 100 µM (inactive) | > 100 µM (inactive) | > 100 µM (inactive) | > 100 µM (inactive) | > 100 µM (inactive) | > 100 µM (inactive)
CSc1ccc(/C=C/c2ccnc3ccccc23)cc1 | 12.5 µM (inactive) | 11.8 µM (inactive) | 14.4 µM (inactive) | 12.2 µM (inactive) | 3.69 µM (inactive) | 10.4 µM (inactive) | 14 µM (inactive) | 20.3 µM (inactive) | 17.7 µM (inactive) | 20.4 µM (inactive) | 13.2 µM (inactive) | 13.9 µM (inactive) | 6.08 µM (inactive) | 12.2 µM (inactive) | 18.5 µM (inactive) | 18.4 µM (inactive) | 6.67 µM (inactive) | 14.5 µM (inactive) | 20.3 µM (inactive) | 
CC1=NN(C(=O)CC(=O)Nc2ccccc2Cl)C(=O)C1/N=N/c1ccc(C(=O)O)cc1 (stereo unspecified) | > 100 µM (inactive) | > 100 µM (inactive) | > 100 µM (inactive) | > 100 µM (inactive) | > 100 µM (inactive) | 4.46 µM (inactive) | > 100 µM (inactive) | > 100 µM (inactive) | > 100 µM (inactive) |  | > 100 µM (inactive) | > 100 µM (inactive) | > 100 µM (inactive) | > 100 µM (inactive) | > 100 µM (inactive) | > 100 µM (inactive) | > 100 µM (inactive) |  | > 100 µM (inactive) | > 100 µM (inactive)
COC(=O)CCC(=O)NC1c2cccc3cccc(c23)Cn2c(=O)n(C)c(=O)n21 (stereo unspecified) | > 100 µM (inactive) | > 100 µM (inactive) | > 100 µM (inactive) | > 100 µM (inactive) | > 100 µM (inactive) | > 100 µM (inactive) | > 100 µM (inactive) | > 100 µM (inactive) | > 100 µM (inactive) | > 100 µM (inactive) | > 100 µM (inactive) | > 100 µM (inactive) | > 100 µM (inactive) | > 100 µM (inactive) | > 100 µM (inactive) | > 100 µM (inactive) | > 100 µM (inactive) |  | > 100 µM (inactive) | > 100 µM (inactive)
O=c1[nH]n(CCc2ccccc2CCl)c2ccc([N+](=O)[O-])cc12 | 52.6 µM (inactive) | 89.9 µM (inactive) | 52.5 µM (inactive) | 72.8 µM (inactive) | 63.5 µM (inactive) | 3.65 µM (inactive) | > 100 µM (inactive) | 83.8 µM (inactive) | > 100 µM (inactive) |  | > 100 µM (inactive) | > 100 µM (inactive) | 29.7 µM (inactive) | 57 µM (inactive) | 92.3 µM (inactive) | 70.6 µM (inactive) | 78.3 µM (inactive) | 95.9 µM (inactive) | > 100 µM (inactive) | 37.2 µM (inactive)
CCOC(=O)c1nc2ccccc2nc1Oc1ccc(F)cc1 |  |  | 70.6 µM (inactive) |  | > 100 µM (inactive) | > 100 µM (inactive) | > 100 µM (inactive) | > 100 µM (inactive) | > 100 µM (inactive) | 11.4 µM (inactive) | > 100 µM (inactive) | > 100 µM (inactive) | > 100 µM (inactive) | > 100 µM (inactive) | 46.8 µM (inactive) | > 100 µM (inactive) | > 100 µM (inactive) | > 100 µM (inactive) | > 100 µM (inactive) | 
COc1ccc2c(c1)CC[C@@H]1C2CC[C@]2(C)C(=C=CP(=O)(O)O)CCC12 (stereo partly specified) | > 100 µM (inactive) | > 100 µM (inactive) | > 100 µM (inactive) |  | > 100 µM (inactive) | > 100 µM (inactive) | > 100 µM (inactive) | > 100 µM (inactive) | > 100 µM (inactive) | > 100 µM (inactive) | > 100 µM (inactive) | > 100 µM (inactive) | > 100 µM (inactive) | > 100 µM (inactive) | > 100 µM (inactive) | > 100 µM (inactive) | > 100 µM (inactive) | > 100 µM (inactive) | > 100 µM (inactive) | > 100 µM (inactive)
O=S(=O)(c1ccccc1)c1cccc2c1NCCC2 |  |  | 31 µM (inactive) | 28.7 µM (inactive) | 35.2 µM (inactive) | 58.3 µM (inactive) | 40.7 µM (inactive) | 44.2 µM (inactive) | > 100 µM (inactive) | 26.1 µM (inactive) | 50.7 µM (inactive) | 64.9 µM (inactive) | 23.2 µM (inactive) | 43.4 µM (inactive) | 27.7 µM (inactive) | 23.6 µM (inactive) | 31.1 µM (inactive) | 49.9 µM (inactive) | > 100 µM (inactive) | > 100 µM (inactive)
O=c1[nH]nc(Cc2ccccc2)n1/N=C/c1ccco1 |  | > 100 µM (inactive) | > 100 µM (inactive) | 99.5 µM (inactive) | > 100 µM (inactive) | > 100 µM (inactive) | > 100 µM (inactive) | 77.1 µM (inactive) | 80 µM (inactive) | > 100 µM (inactive) | > 100 µM (inactive) |  |  | > 100 µM (inactive) | 24 µM (inactive) | > 100 µM (inactive) | > 100 µM (inactive) | > 100 µM (inactive) | > 100 µM (inactive) | > 100 µM (inactive)
CSc1c(C#N)c(S)n(-c2ccc(Cl)cc2)c(=O)c1C#N | 50.9 µM (inactive) | 39.6 µM (inactive) |  | 44.2 µM (inactive) | > 100 µM (inactive) | > 100 µM (inactive) | > 100 µM (inactive) | 40.2 µM (inactive) | > 100 µM (inactive) | > 100 µM (inactive) | > 100 µM (inactive) | > 100 µM (inactive) | 83.9 µM (inactive) | > 100 µM (inactive) | 93.3 µM (inactive) | > 100 µM (inactive) | 76.9 µM (inactive) | 48.9 µM (inactive) |  | 46.1 µM (inactive)
CSc1ccsc1-c1sc(-c2cc(SC)c(-c3sc(-c4cc(SC)c(-c5sccc5SC)s4)cc3SC)s2)cc1SC | 18.3 µM (inactive) | 64.9 µM (inactive) | > 100 µM (inactive) | 18 µM (inactive) | 20.9 µM (inactive) | > 100 µM (inactive) | 21.5 µM (inactive) | 65.2 µM (inactive) | > 100 µM (inactive) |  | 49.8 µM (inactive) | > 100 µM (inactive) | > 100 µM (inactive) | > 100 µM (inactive) | > 100 µM (inactive) | > 100 µM (inactive) | 76.4 µM (inactive) |  | > 100 µM (inactive) | > 100 µM (inactive)
FC(F)(F)c1cnc(N/N=C(/c2ccccc2)c2ccccn2)c(Cl)c1 | 1.9 µM (inactive) | 7.26 µM (inactive) | 3.4 µM (inactive) | 2.67 µM (inactive) | 6.87 µM (inactive) | 3.43 µM (inactive) | 3.02 µM (inactive) | 5.14 µM (inactive) | 6.87 µM (inactive) | 6.25 µM (inactive) | 3.37 µM (inactive) |  | 4.29 µM (inactive) | 3.27 µM (inactive) | 12.3 µM (inactive) | 2.49 µM (inactive) | 5.3 µM (inactive) | 13.2 µM (inactive) | 7.4 µM (inactive) | 7.76 µM (inactive)
COc1ccc2oc(=O)c(-c3csc(-c4ccccc4)n3)cc2c1 |  |  | 22.8 µM (inactive) | > 100 µM (inactive) | > 100 µM (inactive) | 41.4 µM (inactive) | 57.7 µM (inactive) | > 100 µM (inactive) | > 100 µM (inactive) | 37.3 µM (inactive) |  | 22.9 µM (inactive) | 45.2 µM (inactive) | 54 µM (inactive) | 24.9 µM (inactive) | > 100 µM (inactive) | 89.5 µM (inactive) | 39.2 µM (inactive) | 17.4 µM (inactive) | 31 µM (inactive)
O=C1OC2(CCCCC2)C(Oc2ccc(Cl)cc2)=C1F | 12.7 µM (inactive) |  | 45.4 µM (inactive) | 20.3 µM (inactive) | 35.6 µM (inactive) | 38.2 µM (inactive) | 23.6 µM (inactive) | 40.1 µM (inactive) | 74 µM (inactive) | 89.1 µM (inactive) | 40.3 µM (inactive) | 85.1 µM (inactive) | 12.9 µM (inactive) | 41.1 µM (inactive) | 61.9 µM (inactive) | 24.3 µM (inactive) | 42.8 µM (inactive) |  | > 100 µM (inactive) | 
